The values that follow come from patent US4591559A, “Antibiotic X-14934A and a method for its preparation” (Hoffmann-La Roche Inc., priority 1985, dated 1986).

The experiment deals with E. Tenella. As to the kind of experiment: Anti-coccidial activity against E. Tenella in chickens. In kind it is in vivo. Conditions: 75 PPM in feed. As to the method:
This test utilizes ten chickens per drug group. Ten chickens are employed as a weight control and ten chickens as an infected control. The drug is given 48 hours in advance of the infection. One gm. of the test drug is mixed in a mechanical mixer with a sufficient amount of chicken feed to result in the desired dosage. The infection consists of approximately 200,000 oocysts given orally by pipette. The tests lasts for eleven days and the surviving bids are autopsied and examined for gross lesions in the ceca. The test bids are rated according to the number of survivors and the number of cecal lesions. The results are expressed as average degree of infection (A.D.I.). An average degree of infection of less than 2.5 is considered to be significant.

`CC[C@@H](C(=O)[C@@H](C)[C@@H](O)[C@H](C)CCc1ccc(C)c(O)c1C(=O)O)[C@H]1O[C@](CC)([C@H]2CC[C@](O)(CC)[C@H](C)O2)C[C@@H]1C` [Lasalocid]: the Mort. % stood at 0% and the “Weight Gain %” value is given as 98%. Besides, the “Ave. Degree Infect.” value (<2.5 considered significant) worked out at 0.0.
